Data reported in the NIST ThermoML archive (doi:10.1021/acs.jced.5b01007).
± gives the expanded uncertainty stated by the source.

Settings: Fluid (supercritical or subcritical phases), Frequency=8 MHz, Pulse-echo method

O=O [oxygen]
Settings | speed of sound [m/s]
299.96 K, 14860 kPa | 352.65 ± 0.38
299.97 K, 9920 kPa | 340.22 ± 0.38
299.97 K, 20050 kPa | 370.99 ± 1.6
299.97 K, 25030 kPa | 392.82 ± 1.9
299.97 K, 29960 kPa | 417.33 ± 2.1
299.97 K, 34960 kPa | 443.87 ± 2.2
299.97 K, 39960 kPa | 471.2 ± 2.2
299.97 K, 45030 kPa | 498.92 ± 2.2
299.97 K, 50010 kPa | 525.82 ± 2.2
299.97 K, 55140 kPa | 552.86 ± 2.1
299.97 K, 60160 kPa | 578.47 ± 2.1
299.97 K, 64960 kPa | 602.28 ± 2
299.97 K, 69690 kPa | 624.95 ± 2
300 K, 74030 kPa | 645.07 ± 1.9
349.98 K, 8030 kPa | 367.01 ± 0.39
349.98 K, 29990 kPa | 433.29 ± 1.6
349.98 K, 49900 kPa | 518.73 ± 1.8
349.98 K, 78850 kPa | 641.85 ± 1.7
349.99 K, 10070 kPa | 370.9 ± 0.39
349.99 K, 14980 kPa | 382.53 ± 0.4
349.99 K, 19640 kPa | 396.03 ± 0.4
349.99 K, 24980 kPa | 414.2 ± 1.5
349.99 K, 35080 kPa | 454.09 ± 1.7
349.99 K, 45020 kPa | 497.15 ± 1.8
349.99 K, 55110 kPa | 541.66 ± 1.8
349.99 K, 59910 kPa | 562.59 ± 1.8
349.99 K, 68690 kPa | 600.07 ± 1.7
350.03 K, 40050 kPa | 475.39 ± 1.8
350.03 K, 64930 kPa | 584.11 ± 1.8
399.05 K, 83180 kPa | 648.15 ± 1.5
399.06 K, 19900 kPa | 421.58 ± 0.42
399.07 K, 74590 kPa | 617.2 ± 1.6
399.07 K, 79990 kPa | 636.78 ± 1.5
399.08 K, 34890 kPa | 469.6 ± 1.5
399.08 K, 39970 kPa | 487.82 ± 1.5
399.08 K, 44980 kPa | 506.29 ± 1.6
399.08 K, 54970 kPa | 543.88 ± 1.6
399.08 K, 60070 kPa | 563.14 ± 1.6
399.08 K, 64900 kPa | 581.28 ± 1.6
399.08 K, 70100 kPa | 600.65 ± 1.6
399.09 K, 4960 kPa | 388.03 ± 0.4
399.09 K, 6020 kPa | 389.77 ± 0.4
399.09 K, 7950 kPa | 393.26 ± 0.4
399.09 K, 25010 kPa | 436.72 ± 1.3
399.09 K, 29900 kPa | 452.47 ± 1.4
399.09 K, 50090 kPa | 525.43 ± 1.6
399.1 K, 15010 kPa | 408.72 ± 0.41
399.11 K, 9980 kPa | 397.34 ± 0.4
449.79 K, 87520 kPa | 660.32 ± 1.4
449.87 K, 80010 kPa | 636.12 ± 1.4
449.88 K, 75270 kPa | 620.61 ± 1.4
449.88 K, 85020 kPa | 652.33 ± 1.4
449.89 K, 65180 kPa | 587.16 ± 1.4
449.89 K, 70120 kPa | 603.58 ± 1.4
449.9 K, 55090 kPa | 553.54 ± 1.4
449.9 K, 60070 kPa | 570.12 ± 1.4
449.93 K, 35030 kPa | 488.6 ± 1.3
449.93 K, 40050 kPa | 504.35 ± 1.4
449.94 K, 6010 kPa | 414.33 ± 0.41
449.94 K, 9970 kPa | 422.01 ± 0.41
449.94 K, 15000 kPa | 433.26 ± 0.42
449.94 K, 20010 kPa | 445.6 ± 1.1
449.94 K, 24940 kPa | 458.85 ± 1.2
449.94 K, 30000 kPa | 473.4 ± 1.3
449.94 K, 45090 kPa | 520.58 ± 1.4
449.94 K, 49910 kPa | 536.52 ± 1.4
449.95 K, 8010 kPa | 418.16 ± 0.41
449.95 K, 88050 kPa | 662.01 ± 1.4
498.83 K, 69940 kPa | 610.55 ± 1.3
498.89 K, 60010 kPa | 580.54 ± 1.3
498.89 K, 65000 kPa | 595.63 ± 1.3
498.9 K, 95000 kPa | 684.96 ± 1.3
498.91 K, 74960 kPa | 625.69 ± 1.3
498.91 K, 90000 kPa | 670.28 ± 1.3
498.91 K, 100060 kPa | 699.53 ± 1.3
498.92 K, 79990 kPa | 640.74 ± 1.3
498.93 K, 84890 kPa | 655.27 ± 1.3
498.94 K, 10000 kPa | 444.64 ± 0.43
498.99 K, 40010 kPa | 521.13 ± 1.2
499 K, 29910 kPa | 492.81 ± 1.2
499 K, 34730 kPa | 506.11 ± 1.2
499 K, 44900 kPa | 535.41 ± 1.3
499.01 K, 24900 kPa | 479.52 ± 1.1
499.02 K, 14940 kPa | 455.31 ± 0.43
499.03 K, 4920 kPa | 434.71 ± 0.42
499.03 K, 5910 kPa | 436.52 ± 0.42
499.03 K, 7820 kPa | 440.23 ± 0.42
499.03 K, 49930 kPa | 550.29 ± 1.3
499.03 K, 54810 kPa | 564.89 ± 1.3
499.04 K, 20070 kPa | 467.39 ± 1.1
